Results as given in ChEMBL document CHEMBL3046904, “Synthesis, characterization, bioactivity, and POM analyses of isothiochromeno[3,4-e][1,2]oxazines” (2013).

Legend:
Type in all cases: functional
MCF7 [1] = assay: Cytotoxicity against Homo sapiens (human) MCF7 assessed as cell growth at 10^-4 M after 48 hr by Alamar Blue assay; settings: MCF7, 48 h, read-out: Activity
NCI-H460 [2] = assay: Cytotoxicity against Homo sapiens (human) NCI-H460 assessed as cell growth at 10^-4 M after 48 hr by Alamar Blue assay; settings: NCI-H460, 48 h, read-out: Activity
SF-268 [3] = assay: Cytotoxicity against Homo sapiens (human) SF268 assessed as cell growth at 10^-4 M after 48 hr by Alamar Blue assay; settings: SF-268, 48 h, read-out: Activity
KM12 = assay: Cytotoxicity against Homo sapiens (human) KM12 after 48 hr by Alamar Blue assay; settings: KM12, 48 h
SK-MEL-2 = assay: Cytotoxicity against Homo sapiens (human) SK-MEL-2 after 48 hr by Alamar Blue assay; settings: SK-MEL-2, 48 h
CAKI-1 = assay: Cytotoxicity against Homo sapiens (human) Caki1 after 48 hr by Alamar Blue assay; settings: CAKI-1, 48 h
U-251 = assay: Cytotoxicity against Homo sapiens (human) U251 after 48 hr by Alamar Blue assay; settings: U-251, 48 h
HT-29 = assay: Cytotoxicity against Homo sapiens (human) HT-29 after 48 hr by Alamar Blue assay; settings: HT-29, 48 h
MDA-MB-231 = assay: Cytotoxicity against Homo sapiens (human) MDA-MB-231 after 48 hr by Alamar Blue assay; settings: MDA-MB-231, 48 h
NCI-H522 = assay: Cytotoxicity against Homo sapiens (human) NCI-H522 after 48 hr by Alamar Blue assay; settings: NCI-H522, 48 h
DU-145 = assay: Cytotoxicity against Homo sapiens (human) DU145 after 48 hr by Alamar Blue assay; settings: DU-145, 48 h
HCT-116 = assay: Cytotoxicity against Homo sapiens (human) HCT116 after 48 hr by Alamar Blue assay; settings: HCT-116, 48 h
OVCAR-8 = assay: Cytotoxicity against Homo sapiens (human) OVCAR8 after 48 hr by Alamar Blue assay; settings: OVCAR-8, 48 h
Malme-3M = assay: Cytotoxicity against Homo sapiens (human) MALME-3M after 48 hr by Alamar Blue assay
SNB-19 = assay: Cytotoxicity against Homo sapiens (human) SNB19 after 48 hr by Alamar Blue assay; settings: SNB-19, 48 h
NCI/ADR-RES = assay: Cytotoxicity against Homo sapiens (human) NCI/ADR-RES after 48 hr by Alamar Blue assay
HCC 2998 = assay: Cytotoxicity against Homo sapiens (human) HCC2998 after 48 hr by Alamar Blue assay; settings: HCC 2998, 48 h
HOP-92 = assay: Cytotoxicity against Homo sapiens (human) HOP92 after 48 hr by Alamar Blue assay; settings: HOP-92, 48 h
HCT-15 = assay: Cytotoxicity against Homo sapiens (human) HCT15 after 48 hr by Alamar Blue assay; settings: HCT-15, 48 h
SW-620 = assay: Cytotoxicity against Homo sapiens (human) SW620 after 48 hr by Alamar Blue assay; settings: SW-620, 48 h
PC-3 = assay: Cytotoxicity against Homo sapiens (human) PC3 after 48 hr by Alamar Blue assay; settings: PC-3, 48 h
NCI-H322M = assay: Cytotoxicity against Homo sapiens (human) NCI-H322M after 48 hr by Alamar Blue assay
OVCAR-4 = assay: Cytotoxicity against Homo sapiens (human) OVCAR4 after 48 hr by Alamar Blue assay; settings: OVCAR-4, 48 h
K562 = assay: Cytotoxicity against Homo sapiens (human) K562 after 48 hr by Alamar Blue assay; settings: K562, 48 h
T47D = assay: Cytotoxicity against Homo sapiens (human) T47D after 48 hr by Alamar Blue assay
RXF 393 = assay: Cytotoxicity against Homo sapiens (human) RXF393 after 48 hr by Alamar Blue assay; settings: RXF 393, 48 h
OVCAR-5 = assay: Cytotoxicity against Homo sapiens (human) OVCAR5 after 48 hr by Alamar Blue assay; settings: OVCAR-5, 48 h
Hs-578T = assay: Cytotoxicity against Homo sapiens (human) Hs 578T after 48 hr by Alamar Blue assay
NCI-H226 = assay: Cytotoxicity against Homo sapiens (human) NCI-H226 after 48 hr by Alamar Blue assay; settings: NCI-H226, 48 h
M14 = assay: Cytotoxicity against Homo sapiens (human) M14 after 48 hr by Alamar Blue assay; settings: M14, 48 h
SF-295 = assay: Cytotoxicity against Homo sapiens (human) SF295 after 48 hr by Alamar Blue assay; settings: SF-295, 48 h
NCI-H460 [4] = assay: Cytotoxicity against Homo sapiens (human) NCI-H460 after 48 hr by Alamar Blue assay; settings: NCI-H460, 48 h
ACHN = assay: Cytotoxicity against Homo sapiens (human) ACHN after 48 hr by Alamar Blue assay
RPMI-8226 = assay: Cytotoxicity against Homo sapiens (human) RPMI8226 after 48 hr by Alamar Blue assay; settings: RPMI-8226, 48 h
SK-MEL-5 = assay: Cytotoxicity against Homo sapiens (human) SK-MEL-5 after 48 hr by Alamar Blue assay; settings: SK-MEL-5, 48 h
NCI-H23 = assay: Cytotoxicity against Homo sapiens (human) NCI-H23 after 48 hr by Alamar Blue assay; settings: NCI-H23, 48 h
TK-10 = assay: Cytotoxicity against Homo sapiens (human) TK10 after 48 hr by Alamar Blue assay; settings: TK-10, 48 h
MCF7 [5] = assay: Cytotoxicity against Homo sapiens (human) MCF7 after 48 hr by Alamar Blue assay; settings: MCF7, 48 h
HOP-62 = assay: Cytotoxicity against Homo sapiens (human) HOP62 after 48 hr by Alamar Blue assay; settings: HOP-62, 48 h
SK-MEL-28 = assay: Cytotoxicity against Homo sapiens (human) SK-MEL-28 after 48 hr by Alamar Blue assay; settings: SK-MEL-28, 48 h
SF-268 [6] = assay: Cytotoxicity against Homo sapiens (human) SF268 after 48 hr by Alamar Blue assay; settings: SF-268, 48 h
MOLT-4 = assay: Cytotoxicity against Homo sapiens (human) MOLT4 after 48 hr by Alamar Blue assay; settings: MOLT-4, 48 h
A549 = assay: Cytotoxicity against Homo sapiens (human) A549 after 48 hr by Alamar Blue assay; settings: A549, 48 h
LOX IMVI = assay: Cytotoxicity against Homo sapiens (human) LOXIMVI after 48 hr by Alamar Blue assay
UACC-257 = assay: Cytotoxicity against Homo sapiens (human) UACC257 after 48 hr by Alamar Blue assay; settings: UACC-257, 48 h
EKVX = assay: Cytotoxicity against Homo sapiens (human) EKVX after 48 hr by Alamar Blue assay
A498 = assay: Cytotoxicity against Homo sapiens (human) A498 after 48 hr by Alamar Blue assay; settings: A498, 48 h
BT-549 = assay: Cytotoxicity against Homo sapiens (human) BT549 after 48 hr by Alamar Blue assay; settings: BT-549, 48 h
[7] = Cytotoxicity against Homo sapiens (human) HL-60(TB) after 48 hr by Alamar Blue assay; settings: HL-60, 48 h
UO-31 = assay: Cytotoxicity against Homo sapiens (human) UO31 after 48 hr by Alamar Blue assay; settings: UO-31, 48 h
786-0 = assay: Cytotoxicity against Homo sapiens (human) 786-0 after 48 hr by Alamar Blue assay; settings: 786-0, 48 h
SR = assay: Cytotoxicity against Homo sapiens (human) SR after 48 hr by Alamar Blue assay
COLO 205 = assay: Cytotoxicity against Homo sapiens (human) COLO205 after 48 hr by Alamar Blue assay; settings: COLO 205, 48 h
IGROV-1 = assay: Cytotoxicity against Homo sapiens (human) IGROV1 after 48 hr by Alamar Blue assay; settings: IGROV-1, 48 h
OVCAR-3 = assay: Cytotoxicity against Homo sapiens (human) OVCAR3 after 48 hr by Alamar Blue assay; settings: OVCAR-3, 48 h
SF-539 = assay: Cytotoxicity against Homo sapiens (human) SF539 after 48 hr by Alamar Blue assay; settings: SF-539, 48 h
UACC-62 = assay: Cytotoxicity against Homo sapiens (human) UACC62 after 48 hr by Alamar Blue assay; settings: UACC-62, 48 h
SN12C = assay: Cytotoxicity against Homo sapiens (human) SN12C after 48 hr by Alamar Blue assay
MDA-MB-435 = assay: Cytotoxicity against Homo sapiens (human) MDA-MB-435 after 48 hr by Alamar Blue assay; settings: MDA-MB-435, 48 h

Cc1ccc(C2=C3SC=c4ccccc4=C3ON=C2c2ccccc2)cc1
growth at 100 µM (MCF7 [1]): 41% | growth at 100 µM (NCI-H460 [2]): 94% | growth at 100 µM (SF-268 [3]): 69%

Cc1ccc(C2=NOC3=c4ccccc4=CSC3=C2c2ccc(C)cc2)cc1
GI50 (KM12): > 100 µM | GI50 (SK-MEL-2): > 100 µM | GI50 (CAKI-1): > 100 µM | GI50 (U-251): > 100 µM | GI50 (HT-29): > 100 µM | GI50 (MDA-MB-231): > 100 µM | GI50 (NCI-H522): 53.8 µM | GI50 (DU-145): > 100 µM | GI50 (HCT-116): 57.5 µM | GI50 (OVCAR-8): 40 µM | GI50 (Malme-3M): > 100 µM | GI50 (SNB-19): > 100 µM | GI50 (NCI/ADR-RES): > 100 µM | GI50 (HCC 2998): > 100 µM | GI50 (HOP-92): 68.1 µM | GI50 (HCT-15): > 100 µM | GI50 (SW-620): > 100 µM | growth at 100 µM (MCF7 [1]): 36% | GI50 (PC-3): > 100 µM | growth at 100 µM (NCI-H460 [2]): 93% | GI50 (NCI-H322M): > 100 µM | GI50 (OVCAR-4): > 100 µM | GI50 (K562): 22.9 µM | GI50 (T47D): 25.4 µM | GI50 (RXF 393): > 100 µM | GI50 (OVCAR-5): > 100 µM | GI50 (Hs-578T): > 100 µM | GI50 (NCI-H226): > 100 µM | GI50 (M14): > 100 µM | GI50 (SF-295): > 100 µM | GI50 (NCI-H460 [4]): > 100 µM | GI50 (ACHN): > 100 µM | GI50 (RPMI-8226): 69.2 µM | GI50 (SK-MEL-5): > 100 µM | GI50 (NCI-H23): > 100 µM | GI50 (TK-10): > 100 µM | GI50 (MCF7 [5]): > 100 µM | GI50 (HOP-62): > 100 µM | GI50 (SK-MEL-28): > 100 µM | GI50 (SF-268 [6]): > 100 µM | GI50 (MOLT-4): 37.1 µM | GI50 (A549): > 100 µM | GI50 (LOX IMVI): > 100 µM | growth at 100 µM (SF-268 [3]): 91% | GI50 (UACC-257): > 100 µM | GI50 (EKVX): > 100 µM | GI50 (A498): > 100 µM | GI50 (BT-549): > 100 µM | GI50 [7]: > 0.0001 µM | GI50 (UO-31): > 100 µM | GI50 (786-0): > 100 µM | GI50 (SR): 42 µM | GI50 (COLO 205): > 100 µM | GI50 (IGROV-1): > 100 µM | GI50 (OVCAR-3): 94.8 µM | GI50 (SF-539): > 100 µM | GI50 (UACC-62): > 100 µM | GI50 (SN12C): 20 µM | GI50 (MDA-MB-435): > 100 µM

COc1ccc(C2=NOC3=c4ccccc4=CSC3=C2c2ccc(C)cc2)cc1
growth at 100 µM (MCF7 [1]): 86% | growth at 100 µM (NCI-H460 [2]): 96% | growth at 100 µM (SF-268 [3]): 97%
